The subject of one experiment is NCI-H1568 cells. Kind of experiment: Cell viability assay (CellTiter Glo) in NCI-H1568. The experiment is classed as cell-based, human. As to conditions: for EC50: read-out: EC50 cell proliferation (CellTiter Glo); for IC50: NCI-H1568, (18h), CellTiter Glo, individual replicates, read-out: NCI-H1568 (18h) CTG. Here is the method:
500–2000 cells were seeded in white, clear bottom 96-well plates (Corning or Perkin Elmer) in 180–200 µl medium per well. The next day, compounds were added using a digital dispenser and a T0 sample was measured for reference. […], and viability (luminescence) was measured using CellTiter Glo or CellTiter Glo 2.0 (Promega) according to manufacturer’s instructions after equilibrating cells and reagents at room temperature and 10–20 min incubation time while shaking.
In general terms: In ATP-based viability assays light output follows the ATP content of the culture.

For experiment [1], the target named is T1, VCB: PROTAC: SMARCA2^BD ternary complex (Homo sapiens, UniProt P51531).
T1 construct: P51531-2, residues 1373-1493 with additional N-terminal SM residues; GST (TEV site) (N); His6 (TEV site) (N, cleaved yes); made in house; host or cells: SMARCA2^BD: Escherichia coli BL21(DE3)
T1 sequence (P51531 with tags, fused parts or gaps isoform P51531-2): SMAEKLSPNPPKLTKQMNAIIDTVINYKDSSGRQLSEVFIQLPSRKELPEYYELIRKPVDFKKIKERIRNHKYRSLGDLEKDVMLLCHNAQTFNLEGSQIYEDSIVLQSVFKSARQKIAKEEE
In words: TR-FRET ternary complex affinity and cooperativity, SMARCA2. In kind it is binding. A general note: TR-FRET usually uses a lanthanide donor and a delayed reading to cut background.

Experiment [2] concerns the target T2, (Homo sapiens, UniProt P51532).
T2 construct: P51532, residues 1448–1569 with additional N-terminal SM residues; GST (TEV site) (N); His6 (TEV site) (N, cleaved yes); made in house; host or cells: SMARCA4^BD: Escherichia coli BL21(DE3)
In words: TR-FRET ternary complex affinity and cooperativity, SMARCA4. The experiment is classed as binding.

Another experiment deals with T3, PBRM1 BD (Homo sapiens, UniProt Q86U86).
T3 construct: GST (TEV site) (N); made in house; host or cells: Escherichia coli BL21(DE3)
In words: TR-FRET binary and ternary (PROTAC + VCB) affinity, PBRM1 bromodomain. In kind it is binding. As to conditions: individual replicates.

The target in a further experiment is SMARCA2 (Homo sapiens, UniProt P51531). Kind of experiment: Imaging-based SMARCA2 protein assay in RKO cells. In kind it is cell-based. Also noted: endogenous in cells; host or cells: RKO, NCI-H1568, A549, HCT116, LU99, HCC-364, HCT-15, HCC4006, SK-N-AS. As to conditions: individual replicates. As for the experimental part:
1250 cells per well in 60 µl medium were plated in flat bottom, poly-lysin coated 384-well plates (CellCarrier Ultra, Perkin Elmer). The next day, test compounds (10 µl of serial dilutions) and DMSO controls were diluted in DMEM medium such that the final DMSO content was <1% or were added using an ultrasound dispensing system. 4 wells were reserved for a background measurement. […] After aspirating the fixing solution, the cells were washed once with 25 µl PBS. 25 µl of blocking buffer (10% goat serum in PBS) was added and cells were incubated for 30 min, then washed once with PBS. […] Cells were again washed once with PBS. […] The cell layer was then washed once with 25 µl PBS, the wells were filled with 25 µl PBS and the plates were sealed with an adhesive sheet. They were then imaged on the Opera Phoenix (mean intensity in the nucleus). […] EC50 values were computed using a 4-parametric logistic model.

Setting [3] is: TR-FRET competition for SMARCA2BD, without VCB, mean ± SD, read-out: TR-FRET SMARCA2BD EC50.
The mark [4] stands for this setting: binary, PROTAC alone, individual replicates, read-out: SMARCA2 BD EC50.
Where [5] appears, read: TR-FRET competition for SMARCA4BD, without VCB, mean ± SD, read-out: TR-FRET SMARCA4BD EC50.
The mark [6] stands for this setting: binary, PROTAC alone, individual replicates, read-out: SMARCA4 BD EC50.
The mark [7] stands for this setting: PROTAC + VCB, read-out: Ternary PBRM1 BD EC50 (PROTAC + VCB).
The mark [8] stands for this setting: binary, PROTAC alone, read-out: PBRM1 EC50.
Setting [9] is: 4h, read-out: RKO (4h) SMARCA2 DC50.
Where [10] appears, read: 18h, read-out: RKO (18h) SMARCA2 DC50.

Where “and” joins values, the source holds several entries; their conditions need not be identical. Equal values may be shown once. Read-outs that look alike come from different tables or passages of the source. Where only a bound is given, the exact number is not on record here.

This is an account of results in article PMC9551036, “A selective and orally bioavailable VHL-recruiting PROTAC achieves SMARCA2 degradation in vivo” (Nature Communications, 2022).

Chain of SMARCA2 (P51531 whole entry): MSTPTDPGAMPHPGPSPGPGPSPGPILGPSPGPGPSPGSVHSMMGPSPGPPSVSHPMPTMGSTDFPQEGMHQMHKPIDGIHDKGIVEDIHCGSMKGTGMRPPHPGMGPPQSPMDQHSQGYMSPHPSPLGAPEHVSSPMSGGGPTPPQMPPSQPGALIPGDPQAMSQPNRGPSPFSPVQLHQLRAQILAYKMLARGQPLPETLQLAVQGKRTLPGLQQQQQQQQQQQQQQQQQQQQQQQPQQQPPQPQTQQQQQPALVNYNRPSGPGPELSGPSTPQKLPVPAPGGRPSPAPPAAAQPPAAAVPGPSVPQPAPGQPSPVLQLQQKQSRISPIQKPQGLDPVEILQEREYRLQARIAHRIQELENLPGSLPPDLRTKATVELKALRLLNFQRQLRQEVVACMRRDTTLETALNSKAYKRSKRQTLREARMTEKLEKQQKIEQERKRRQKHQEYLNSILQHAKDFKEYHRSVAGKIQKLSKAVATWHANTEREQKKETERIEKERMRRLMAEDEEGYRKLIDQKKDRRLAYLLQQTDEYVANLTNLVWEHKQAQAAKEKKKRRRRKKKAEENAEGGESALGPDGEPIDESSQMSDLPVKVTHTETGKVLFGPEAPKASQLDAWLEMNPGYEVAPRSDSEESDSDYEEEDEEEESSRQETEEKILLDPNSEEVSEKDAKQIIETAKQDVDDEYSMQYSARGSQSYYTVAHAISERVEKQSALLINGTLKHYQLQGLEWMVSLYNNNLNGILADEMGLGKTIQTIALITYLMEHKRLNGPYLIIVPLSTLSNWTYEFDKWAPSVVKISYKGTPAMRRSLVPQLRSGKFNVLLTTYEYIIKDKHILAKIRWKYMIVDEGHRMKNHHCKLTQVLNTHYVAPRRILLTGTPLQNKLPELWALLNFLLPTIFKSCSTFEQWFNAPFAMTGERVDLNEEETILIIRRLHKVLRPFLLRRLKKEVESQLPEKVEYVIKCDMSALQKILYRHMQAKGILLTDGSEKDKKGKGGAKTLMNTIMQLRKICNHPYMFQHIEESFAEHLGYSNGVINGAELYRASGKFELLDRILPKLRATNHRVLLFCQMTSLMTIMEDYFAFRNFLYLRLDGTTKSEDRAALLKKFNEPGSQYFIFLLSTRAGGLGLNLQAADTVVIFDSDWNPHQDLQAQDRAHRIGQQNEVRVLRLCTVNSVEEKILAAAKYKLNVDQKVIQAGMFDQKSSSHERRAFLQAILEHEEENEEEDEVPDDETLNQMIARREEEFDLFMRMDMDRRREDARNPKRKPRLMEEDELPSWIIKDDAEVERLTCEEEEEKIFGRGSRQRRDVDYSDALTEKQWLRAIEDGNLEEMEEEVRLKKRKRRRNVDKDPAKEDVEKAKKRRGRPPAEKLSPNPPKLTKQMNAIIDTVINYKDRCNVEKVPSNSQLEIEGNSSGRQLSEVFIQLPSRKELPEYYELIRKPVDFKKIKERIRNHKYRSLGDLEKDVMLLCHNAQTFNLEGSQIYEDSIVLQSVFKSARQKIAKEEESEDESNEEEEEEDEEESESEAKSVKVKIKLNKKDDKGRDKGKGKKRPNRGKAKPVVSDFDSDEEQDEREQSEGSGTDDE
T2 sequence (P51532 1448-1569): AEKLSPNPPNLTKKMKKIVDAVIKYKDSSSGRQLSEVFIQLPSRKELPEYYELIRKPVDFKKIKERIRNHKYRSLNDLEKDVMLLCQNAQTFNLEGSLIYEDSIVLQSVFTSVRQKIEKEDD

Turning to `Cc1ncsc1-c1ccc([C@H](CC[C@@H](C)CCN2CCC(c3ccc4c(c3)n(C3CCCC3)c3nc(=O)c5c(Br)cccc5n43)CC2)NC(=O)[C@@H]2C[C@@H](O)CN2C(=O)[C@@H](NC(=O)C2(F)CC2)C(C)(C)C)cc1` [compound 29], the EC50 with NCI-H1568 cells (NCI-H1568 ([…]), mean ± SD) was 5 ± 2 nM; in experiment [1] (setting [3]), 201 ± 45 nM; in experiment [1] (setting [4]), 166 nM and 269 nM and 192 nM and 189 nM; in experiment [2] (setting [5]) it was 416 ± 177 nM; in experiment [2] (setting [6]), 272 nM and 625 nM and 423 nM; on PBRM1 BD (setting [7]), 2.66 nM and 3.59 nM and 4.13 nM. Also, the EC50 on PBRM1 BD (setting [8]) was 66.7 nM and 78.8 nM and 115 nM. The IC50 in the experiment on NCI-H1568 cells is 4.01 nM and 5.99 nM and 2.49 nM and 8.59 nM and 7.01 nM. Further, the DC50 on SMARCA2 (setting [9]) is 1.56 nM and 2.15 nM and 1.32 nM and 3.46 nM; at SMARCA2 (setting [10]), 0.877 nM and 0.998 nM and 0.942 nM and 0.753 nM.

With `CN1CCN(c2nc(=O)c3c(I)cccc3o2)CC1` [compound 16], the EC50 in the experiment with NCI-H1568 cells (NCI-H1568 ([…]), mean ± SD) was more than 10000 nM; in experiment [1] (setting [4]), more than 10000 nM; in experiment [2] (setting [6]), more than 10000 nM; at PBRM1 BD (setting [7]) it was more than 10000 nM; at PBRM1 BD (setting [8]) it was more than 10000 nM. For the same molecule, in the experiment with NCI-H1568 cells, the IC50 was more than 10000 nM. Also, the DC50 at SMARCA2 (setting [9]) and at SMARCA2 (setting [10]) was more than 25000 nM in each case.

`CN1CCC(c2ccc3c(c2)n(C2CCCC2)c2nc(=O)c4c(Br)cccc4n32)CC1` [compound 3]: the EC50 in the experiment on NCI-H1568 cells (Homo sapiens, NCI-H1568, […]) is 1260 nM; in experiment [1] (setting [3]), 48 ± 17 nM; in experiment [1] (setting [4]), 41.5 nM (2×) and 50.5 nM (2×) and 46.7 nM (2×) and 58.6 nM (2×) and 54.9 nM and 55.3 nM (2×) and 61.9 nM and 60.8 nM and 59.4 nM and 56.4 nM (2×) and 58.5 nM and 55.9 nM and 44.1 nM (3×) and 66.1 nM and 65.6 nM and 59.3 nM and 60.7 nM and 64.2 nM and 61.1 nM (2×) and 63.1 nM (2×) and 72.4 nM and 76.3 nM and 46.2 nM (2×) and 47.7 nM (2×) and 84.8 nM and 89.7 nM and 32 nM and 34.9 nM and 57.7 nM and 57.6 nM and 55.4 nM and 26.3 nM and 29.8 nM and 46.1 nM and 26.7 nM and 39.1 nM and 38.8 nM (2×) and 42.6 nM and 42.2 nM and 43 nM and 27.6 nM and 28.3 nM and 27.5 nM (2×) and 46 nM and 60.6 nM and 42.3 nM and 49.5 nM (2×) and 49.3 nM and 42.8 nM and 48.8 nM and 46.3 nM (2×) and 49.7 nM and 47.2 nM (2×) and 49 nM (2×) and 50.2 nM and 49.2 nM (3×) and 51.2 nM and 50.1 nM (2×) and 51.1 nM and 50.4 nM and 52.4 nM (2×) and 52.5 nM (2×) and 52 nM (2×) and 56.1 nM and 68 nM and 55.7 nM and 52.1 nM and 60.9 nM and 51.8 nM and 47 nM and 47.4 nM and 48.2 nM and 102 nM (2×) and 53.7 nM and 54.7 nM and 56.6 nM (2×) and 44.3 nM (2×) and 47.5 nM and 101 nM and 53.5 nM and 64.4 nM and 66.2 nM and 65.5 nM and 64.6 nM and 64.8 nM and 92.1 nM and 55.6 nM and 55.5 nM and 112 nM and 107 nM and 59.8 nM and 54.4 nM and 32.2 nM and 41.9 nM and 44.7 nM (2×) and 30.9 nM and 79.5 nM and 33.5 nM and 26.9 nM and 33.6 nM and 39.7 nM and 36.7 nM and 36.8 nM and 37.3 nM and 38.4 nM and 51.3 nM and 42.7 nM and 45.1 nM and 46.5 nM and 157 nM and 52.2 nM; in experiment [2] (setting [5]), 107 ± 29 nM; in experiment [2] (setting [6]), 95.4 nM and 105 nM and 124 nM and 115 nM and 117 nM and 113 nM (3×) and 121 nM and 114 nM and 81.2 nM and 90.5 nM and 95.1 nM and 82.4 nM and 86.5 nM and 90.1 nM and 86 nM and 90.3 nM (2×) and 78 nM and 69.2 nM and 191 nM and 161 nM and 107 nM and 99.4 nM and 89 nM and 90.2 nM and 81.3 nM and 182 nM and 188 nM and 131 nM and 128 nM and 126 nM and 132 nM and 94.7 nM and 129 nM and 86.8 nM and 102 nM and 109 nM and 112 nM; on PBRM1 BD (setting [7]), 49.4 nM and 29.7 nM (2×) and 21.8 nM and 18 nM and 21.3 nM and 22.2 nM and 18.6 nM and 21.6 nM and 46 nM and 35.8 nM and 25 nM and 35.5 nM (2×) and 36.4 nM and 29.1 nM and 25.9 nM and 29.2 nM and 27.1 nM and 30.4 nM (2×) and 31.6 nM and 33.5 nM and 23 nM (2×) and 29.5 nM and 54.4 nM and 51.5 nM and 24 nM and 36.6 nM and 32.2 nM and 65.8 nM and 63.7 nM and 42.6 nM and 25.7 nM and 43.8 nM and 40.2 nM and 16.5 nM and 24.8 nM and 34.1 nM and 26.1 nM and 30.2 nM. In addition, on PBRM1 BD (setting [8]), the EC50 is 27.3 nM and 29.3 nM and 18.1 nM and 21.5 nM and 21.7 nM and 19.9 nM and 23.1 nM and 18.9 nM and 42.5 nM and 22.4 nM and 27 nM and 28.2 nM and 20.7 nM and 30.6 nM and 34 nM (3×) and 32.6 nM and 30.2 nM and 34.7 nM and 36.6 nM and 33.4 nM and 20.8 nM and 53.5 nM and 23.4 nM and 49.7 nM and 23 nM and 24 nM and 38.4 nM and 37.6 nM and 35 nM and 67.5 nM and 70.9 nM and 46.6 nM and 44.1 nM and 25.3 nM and 42.6 nM and 18.7 nM and 31.1 nM and 26.8 nM and 30.5 nM and 40.9 nM. Also, the DC50 on SMARCA2 (setting [9]) is more than 25000 nM; on SMARCA2 (setting [10]), 20000 nM and 24900 nM and 22400 nM.

As to `Cc1ncsc1-c1ccc([C@H](COCCN2CCC(c3ccc4c(c3)n(C3CCCC3)c3nc(=O)c5c(Br)cccc5n43)CC2)NC(=O)[C@@H]2C[C@@H](O)CN2C(=O)[C@@H](NC(=O)C2(N(C)C)CC2)C(C)(C)C)cc1` [compound 26], the EC50 is 33 ± 25 nM with NCI-H1568 cells (Homo sapiens, NCI-H1568, […]); 71 ± 15 nM in experiment [1] (setting [3]); 87 nM and 79.2 nM and 87.9 nM and 88.7 nM and 86.5 nM and 48.4 nM and 75.1 nM and 59.9 nM and 56.1 nM (2×) and 67.5 nM in experiment [1] (setting [4]); 149 ± 41 nM in experiment [2] (setting [5]); 136 nM and 180 nM and 162 nM and 117 nM and 111 nM and 126 nM and 154 nM and 147 nM and 247 nM in experiment [2] (setting [6]); 4.07 nM and 5.33 nM and 4.96 nM and 5.58 nM and 10.7 nM and 6.01 nM and 6.73 nM and 6.09 nM at PBRM1 BD (setting [7]). The EC50 at PBRM1 BD (setting [8]) was 22.2 nM and 18.2 nM and 23.4 nM and 24.5 nM and 15.7 nM and 23.5 nM and 21.5 nM and 14.9 nM and 30.3 nM and 26.7 nM. Moreover, the IC50 with NCI-H1568 cells was 52.4 nM and 57.1 nM and 12.2 nM. In addition, the DC50 on SMARCA2 (setting [9]) was 13.4 nM and 7.13 nM and 22 nM and 9.24 nM; at SMARCA2 (setting [10]), 3.5 nM and 6.73 nM and 7.09 nM.

As to `Cc1ncsc1-c1ccc([C@H](COCCCN2CCC(c3ccc4c(c3)n(C3CCCC3)c3nc(=O)c5c(Br)cccc5n43)CC2)NC(=O)[C@@H]2C[C@@H](O)CN2C(=O)[C@@H](NC(=O)C2(F)CC2)C(C)(C)C)cc1` [compound 27], the EC50 is 13 ± 1 nM in the experiment with NCI-H1568 cells (NCI-H1568 ([…]), mean ± SD); 91 ± 11 nM in experiment [1] (setting [3]); 98.5 nM and 107 nM and 101 nM (2×) and 91.6 nM and 79.8 nM and 86.9 nM and 77.2 nM and 83.6 nM in experiment [1] (setting [4]); 193 ± 15 nM in experiment [2] (setting [5]); 183 nM and 211 nM and 185 nM and 209 nM and 173 nM and 200 nM in experiment [2] (setting [6]); 2.18 nM and 2.66 nM and 2.87 nM and 2.65 nM and 2.69 nM and 3.64 nM and 3.28 nM on PBRM1 BD (setting [7]). In addition, the EC50 at PBRM1 BD (setting [8]) is 32.7 nM and 35.1 nM and 34.6 nM and 30.3 nM and 34.2 nM and 22.8 nM and 45.7 nM. Besides, the IC50 with NCI-H1568 cells is 14.2 nM and 12 nM and 13.3 nM. Besides, the DC50 on SMARCA2 (setting [9]) was 5.2 nM and 2.76 nM and 5.65 nM and 7.65 nM; at SMARCA2 (setting [10]), 1.7 nM and 2.99 nM and 2.34 nM.
